Measurements as given in patent publication US11040052B2, “Methods and pharmaceutical compositions for modulating autophagy in a subject in need thereof” (INSERM (INSTITUT NATIONAL DE LA SANTE ET DE LA RECHERCHE …, priority 2013, dated 2021).

Assays:
[1] = test system: U2OS cells stably expressing GFP-LC3; assay: Autophagy in cultured cells: GFP-LC3 puncta formation and LC3 lipidation with or without bafilomycin A1; format: cell-based, human; settings: for autophagic flux (GFP-LC3 puncta formation, LC3 lipidation): cells kept in rich medium, presence and absence of BafA1; for statin-induced autophagy upon supplementation: 12 hours, Simvastatin and Mevastatin
Experimental: U2OS, HeLa or H4 cells stably expressing GFP-LC3 were seeded in 96-well imaging plates (BD Falcon, Sparks, USA) 24 h before stimulation. Cells were treated with the indicated agents for 4 h. […] Images were analyzed for the presence of GFP-LC3 puncta in the cytoplasm by means of the BD Attovision software (BD Imaging Systems). Cell surfaces were segmented and divided into cytoplasmic and nuclear regions according to manufacturer standard proceedings. RB 2×2 and Marr-Hildreth algorithms were used to recognize cytoplasmic GFP-LC3 positive dots. Statistical analyses were implemented on the R software (http://www.r-project.org/). For quantitative analyses of protein acetylation, cell surfaces were segmented into cytoplasm and nuclei regions, and staining intensity of each individual cell was measured for statistical analysis.
Membranes were then sliced in different parts according to the molecular weight of the protein of interest to allow simultaneous detection of different antigens within the same experiment. Unspecific binding sites were saturated by incubating membranes for 1 h in 0.05% Tween 20 (v:v in TBS) supplemented with 5% non-fat powdered milk (w:v in TBS), followed by the overnight incubation with primary antibodies specific for acetylated-lysine, LC3, phospho-AMPK (Thr172), AMPK, phospho-ribosomal protein S6 kinase (Thr421/Ser424), ribosomal protein S6 kinase, or STQM/p62 (Santa Cruz Biotechnology). Development was performed with appropriate horseradish peroxidase (HRP)-labeled secondary antibodies (Southern Biotech, Birmingham, USA) plus the SuperSignal West Pico chemoluminescent substrate (Thermo Scientific-Pierce). An anti-glyceraldehyde-3-phosphate dehydrogenase antibody (Chemicon International, Temecula, USA) was used to control equal loading of lanes.
For immunoblotting, protein extracts obtained by cellular lysis via RIPA buffer were run on 4-12% Bis-Tris acrylamide (Invitrogen) and electrotransferred to […] PVDF membranes (Biorad, USA). Unspecific binding sites were saturated by incubating membranes for 1 h in 0.05% Tween 20 (v:v in TBS) supplemented with 5% non-fat powdered milk (w:v in TBS), followed by an overnight incubation with primary antibodies specific for, LC3, phospho-AMPK (Thr172), AMPK, phosphor-ACC (Ser79), ACC, phospho-ribosomal protein S6 kinase (Thr421/Ser424), ribosomal protein S6 kinase, or SQSTM/p62 (Abnova). Membranes were opportunely cut in order to allow simultaneous detection of different molecular weight proteins. Development was performed with horseradish peroxidase (HRP)-labeled secondary antibodies (Southern Biotech, Birmingham, USA) plus the SuperSignal West Pico chemo luminescent substrate (Thermo Scientific-Pierce). An anti-glyceraldehyde-3-phosphate dehydrogenase antibody (Abcam) and anti-Actin antibody (Abcam) were used to ensure equal loading of lanes. Quantification was performed by densitometry by means of Image J software.
U2OS and H4 cells stably expressing GFP-LC3 were seeded in 96-well or 384-well imaging plates (BD Falcon, Sparks, USA). 24 h before stimulation, ells were treated with the indicated agents for 6 hours in absence of lysososomal ATPase inhibitors and for 3 hours in presence of Bafilomycin A1. […] Images were analyzed for the detection of GFP-LC3 puncta in the cytoplasm by means of the BD Attovision software (BD Imaging Systems. Cellular regions of interest, cytoplasm and nucleus, were defined and segmented according to standard proceedings. RB 2×2 and Marr-Hildreth algorithms were employed to allow the detection of GFP LC3 puncta. Statistical analyses were conducted using the R and Prism softwares (http://www.r-project.org/). For quantitative analyses of protein acetylation, cell surfaces were segmented intocytoplasmic and nucleic regions, and staining intensity of each individual cell was measured for statistical analysis.

MCA205 tumor = assay: Growth of transplantable tumors with chemotherapy; format: in vivo, mice; settings: for tumor growth, combined with MTX: immunocompetent wild type mice, agent given before and with mitoxanthrone
Experimental: C57BL/6 mice (Charles River Laboratory, Lentilly, France) were bred and maintained according to both the FELASA and the Animal Experimental Ethics Committee Guidelines (Val de Marne, France). Mice were housed in a temperature-controlled environment with 12 h light/dark cycles and received food and water ad libitum. For HC-related experiments, mice were injected intraperitoneally with a single 100 mg/kg dose and 6 h later were sacrificed and tissues were immediately frozen in liquid nitrogen. For DCA- and DMKG-related experiments, mice were subjected to 24 h starvation and injected intraperitoneally each 8 h with a 100 mg/kg of either DCA or DMKG solution prepared in PBS. After 24 h of starvation, mice were sacrificed and tissues were immediately frozen in liquid nitrogen after extraction and homogenized two cycles for 20 s at 5,500 rpm using Precellys 24 tissue homogenator (Bertin Technologies, Montigny-le-Bretonneux, France) in a 20 mM Tris buffer (pH 7.4) containing 150 mM NaCl, 1% Triton X-100, 10 mM EDTA and Complete® protease inhibitor cocktail (Roche Applied Science). Tissue extracts were then centrifuged at 12,000 g at 4° C. and supernatants were collected. Protein concentration in the supernatants was evaluated by the bicinchoninic acid technique (BCA protein assay kit, Pierce Biotechnology, Rockford, Ill.). For hydroxycitrate-related weight-loss experiments, autophagy-deficient Atg4b^−/− mice were used. Atg4b^−/− mice have been previously described (Mariño et al., 2010). For HC-, spermidine-, and resveratrol-related experiments (tumour growth) mice were intraperitoneally injected with respectively 100 mg/kg, 50 mg/kg and 100 mg/kg doses at day 8 and day 9. At day 9, mice were intraperitoneally injected with 2 mg/kg single dose of Mitoxanthrone. For starvation related experiment (tumour growth) mice were treated as previously described (Fabrizio et. al., 2010).
Six weeks old female C57BL/6, Balb/c and nude athymic mice (Harlan Laboratory, Gannat, France) were bred and maintained according to both the FELASA and the Animal Experimental Inserm Ethics Committee Guidelines (project: 2012-69). Mice were housed in a temperature-controlled environment with 12 h light/dark cycles and received food and water ad libitum. For tumor growth experiments, procedures adopted are described as follows: 3×10^5 tumor cells were subcutaneously inoculated; when tumors became palpable (day −1 before chemotherapy), mice were first intraperitoneally injected with 100 mg/kg Potassium Hydroxycitrate, 10 mg/kg Acetylsalicylic Acid, 30 mg/kg SB204990, 30 mg/kg c646, 5 mg/kg Rapamycin, 25 mg/kg Resveratrol, 50 mg/kg Spermidine. At day 0, mice were intraperitoneally injected with the abovementioned compounds and with 5.17 mg/Kg Mitoxanthrone or 5 mg/kg Oxaliplatin. Tumor size was measured every two days. For starvation experiments, mice underwent 48 hour fasting followed by intreperitoneal injection of chemotherapeutics. For autophagy induction study, 6 hours after CRMs administration, mice were sacrificed and tissues were snap-frozen in liquid nitrogen after extraction and homogenized two cycles for 20 s at 5,500 rpm using Precellys 24 tissue homogenator (Bertin Technologies, Montigny-le-Bretonneux, France) in a 20 mM Tris buffer (pH 7.4) containing 150 mM NaCl, 1% Triton X-100, 10 mM EDTA and Complete® protease inhibitor cocktail (Roche Applied Science, Penzberg, Germany). Tissue extracts were then centrifuged at 12,000 g at 4° C. and supernatants were collected. Protein concentration in the supernatants was evaluated by the bicinchoninic acid technique (BCA protein assay kit, Pierce Biotechnology, Rockford, US.

AcCoA levels = assay: Targeted analysis of AcCoA levels in cultured cells (HPLC-MS); format: cell-based, human; settings: cells kept in rich medium
Experimental: Cells were trypsinized, pelleted at 1000 rpm for 4 min, washed with PBS and pelleted again at 1000 rpm for 4 min. Cells were then resuspended in 5 ml of ice-cold hyposmotic buffer and keep on ice for 5 min. Cells were broken to release nuclei using a pre-chilled Dounce homogenizer (20 strokes with a tight pestle) and then were then centrifuged at 228 g.
For in vitro experiments, cell pellets were resuspended in 300 μL of water with HEPES and EDTA (pH 7.4) at 1 mM containing internal standard acetylcoenzyme A (2-C13) at 1 mg/L, vortexed and heated at 100° C. for 1 min. Samples were incubated in liquid nitrogen for 1 min and thawed at room temperature two times. They were let for 1 h at −20° C. and centrifuged at 4° C. during 15 min at 13,000 g. Supernatants were transferred in HPLC vials and injected in HPLC/MS or kept at −80° C. until injection. For in vivo experiments, frozen tissues were placed in ice-cold homogenization tubes containing ceramic beads. Five μL of ice-cold methanol/water (80/20; v/v) were added for 1 mg of tissue. Tissues were homogenized two times for 20 s at 5,500 rpm using Precellys 24 tissue homogenator (Bertin Technologies, Montigny-le-Bretonneux, France). Samples were placed 10 min on ice. Next they were centrifuged at 4° C. during 15 min at 13,000 g. Supernatants were transferred in HPLC vials and injected in HPLC-MS system or kept at −80° C. until injection.
Targeted analyses were performed on Rapid Resolution Liquid Chromatography (RRLC) 1200SL system (Agilent Technologies, Waldbronn, Germany) coupled to a Triple Quadruple QQQ 6410 mass spectrometer (Agilent Technologies). RRLC analysis was done on 150×2.1 mm, 3.5 μm Eclipse Plus SB-Aq column with a pre-column 30 mm×2.1 mm 3.5 μm Eclipse plus (Agilent Technologies) with water containing 10 mmol/L of ammonium acetate and 0.01% of acetic acid in channel A and acetonitrile in channel B in gradient mode at a flow rate of 0.3 mL·min^−1: t=0 min 2% B; t=9 min 95% B; t=11 min 95% B; re-equilibration time of 3 min. Mass spectrometer analysis was done in positive electrospray ionization mode at +4 kV on the QQQ system operating in MRM mode. MRM transitions were optimized with standard of AcCoA and AcCoA A 2-C^13 with direct infusion. Two transitions were recorded for each compound; • AcCoA 810>303 CE (collision energy) 28V; fragmentor 180V • 810>428 CE 20V • AcCoA 2-C13 812>305 CE 28V; fragmentor 180V • 812>428 CE 24V […]

COc1ccc(-c2ccccc2)cc1NS(=O)(=O)c1cc(Cl)cc(Cl)c1O [BMS-303141, 3 5-Dichloro-2-hydroxy-N-(4-methoxy[1,1′-biphenyl]-3-yl)-benzenesulfonamide]
autophagic flux (GFP-LC3 puncta formation, LC3 lipidation) [1]: stimulated autophagic flux in cultured cancer cells | autophagic flux (GFP-LC3 puncta formation, LC3 lipidation) ([1]; listed as BMS303141): induce autophagic flux

O=C(O)C[C@]1(O)C[C@H](CCCCCCc2ccc(Cl)cc2Cl)OC1=O (relative stereo) [SB-204990, (3R,5S)-rel-5-[6-(2,4-Dichlorophenyl)hexyl]tetrahydro-3-hydroxy-2-oxo-3-furanacetic acid]
autophagic flux (GFP-LC3 puncta formation, LC3 lipidation) [1]: stimulated autophagic flux in cultured cancer cells | autophagic flux (GFP-LC3 puncta formation, LC3 lipidation) ([1]; listed as SB204990): induce autophagic flux | tumor growth, combined with MTX (MCA205 tumor): HC could be replaced | tumor growth, combined with MTX (MCA205 tumor; listed as SB204990): can enhance chemotherapy efficacy | tumor growth, combined with MTX, immunodeficient mice (MCA205 tumor; nu/nu (nude athymic) mice): failed

CC(O)(CCO)CC(=O)O (centres unmarked) [mevalonate]
statin-induced autophagy upon supplementation [1]: only suppresses statin-induced autophagy | statin-induced autophagy upon supplementation ([1]; listed as Mevalonate): reverts statins-induced

CC1COC(=O)C1 (centres unmarked) [3-methylbutyrolactone]
autophagic flux (GFP-LC3 puncta formation, LC3 lipidation) [1]: marked increase in GFP-LC3 puncta

COc1cc(/C=C/C(=O)CC(=O)/C=C/c2ccc(O)c(OC)c2)ccc1O [curcumin]
autophagic flux (GFP-LC3 puncta formation, LC3 lipidation) [1]: marked increase in GFP-LC3 puncta

CCCCCCCCCCCCCCCc1cccc(O)c1C(=O)O [anacardic acid, 6-pentadecylsalicylic acid]
autophagic flux (GFP-LC3 puncta formation, LC3 lipidation) [1]: marked increase in GFP-LC3 puncta

C1CCC(C(CC2CCCCN2)C2CCCCC2)CC1 (centres unmarked) [PHX, perhexiline]
autophagic flux (GFP-LC3 puncta formation, LC3 lipidation) [1]: induced signs of autophagy | AcCoA levels (AcCoA levels): reduced AcCoA cellular levels
